Test results as given in patent US6576622B1, “Drug combination for the treatment of viral diseases” (University of Medicine & Dentistry of New Jersey, priority 1995, dated 2003).

Key:
HIV-gpt [1] = assay: HIV-gpt colony formation after infection of HeLa-T4 cells in the presence of antiretroviral agents; type: cell-based; conditions: HeLa-T4; plasmid derived HIV-gpt (COS cells); AZT 10 μM, DDI 50 μM, D4T 50 μM; no drug control 8800
HIV-LacZ = type: cell-based; conditions: d4T at 50 μM
HIV-gpt [2] = assay: HIV-gpt colony formation in the presence of D4T; type: cell-based; conditions: for Frequency: with D4T
Method: (§1) Production of recombinant HIV-gpt has been described elsewhere (26). The amphotropic cell line PA317 was transfected with the recombinant murine retrovirus pLXSN (36) and was used as the source of the recombinant MLV-neo virus. Stock preparations of HIV-1IIIB were harvested from H9 cells by the “shake off method” (13). Stock virus infectivity was determined by end-point dilution in MT-2 cells (32). Virus induced cytopathic effect was scored 7 days post-infection and the TCID50 was calculated with the Reed and Muench equation (33).
(§2) To confirm this high rate of infection in the absence of genetic drug resistance, we used several other recombinant viruses and host cells. […] A high rate of infection of Jurkat cells in the presence of d4T has also been seen.
(§3) Table 5. HIV-gpt produced in COS cells by transfection with plasmids (plasmid derived) is compared with HIV-gpt produced by, rescue from H9/HIV-gpt cell line after infection with HIV-IIIB and cells infected with MLV-neo.

MLV-neo = MLV-neo colony formation in the presence of antiviral agents; type: cell-based, Moloney Leukemia virus
Method: as §1, §2, §3
(§4) Table 6. Colony formation and persistent resistance after Hela-T4 cell infection with MLV-neo virus in the presence and absence of various antiviral agents.

[3] = system: recombinant HIV, recombinant MLV, or replication-competent HIV; type: cell-based
Excerpt: The presence of a selectable marker gene in the recombinant HIV allowed the isolation of cells infected by the recombinant viruses in the presence of d4T. These cells were characterized by infection with both additional recombinant viruses and by replication-competent viruses.
as §4

MLV-LacZ = assay: Infection of Jurkat JE6.1 cell clones with MLV-LacZ in the presence of D4T; type: cell-based
Excerpt: Table 7. Infection of Jurkat JE6.1 cell clones sensitive and resistant to D4T.
** Bulk=bulk culture; R=resistant clone; C=control clone; JE6.1=parental cell line.

HIV-IIIB = HIV-IIIB infection of JE6.1 cells refractory to d4T, D4T IC50 with FUdr (RT activity); type: cell-based, HIV-1; conditions: Human immunodeficiency virus 1, IIIB, 144 h, concentration of D4T for 50% inhibition of RT activity on day 6, F = uM FUdr
Method: Table 8. Jurkat JE6.1 cells refractory to the antiviral activity of d4T (D4T bulk, D4TR1, D4TR3) and control JE6.1 cells were infected with HIV-IIIB in the presence of 0.001 uM d4T, 0.01 uM d4T 0.1 uM d4T, 1 uM d4T, 10 uM d4T, 100 uM d4T and 1000 uM d4T in the presence of 0.005 uM FUdr, 0.01 uM FUdr or 0.25 uM FUdr.

## Cc1cn([C@H]2C=C[C@@H](CO)O2)c(=O)[nH]c1=O [D4T, Stavudine]
HIV-gpt [1]
  Number of colonies: 50
HIV-LacZ
  cross resistance of cell lines “persistently resistant” to AZT to other nucleoside analogs: partial cross resistance
HIV-gpt [2]; HIV-gpt by rescue with HIV
  Frequency: 1.6 × 10^3
HIV-gpt [2]; HIV-gpt by rescue with HIV, without D4T 3.4 × 10^4
  No. of colonies with D4T: 53
HIV-gpt [2]; plasmid derived HIV-gpt
  Frequency: 1.7 × 10^3
HIV-gpt [2]; plasmid derived HIV-gpt, without D4T 4.7 × 10^4
  No. of colonies with D4T: 80
MLV-neo; Hela-T4, AZT 10 uM, DDI 50 uM, DDC 10 uM, D4T 50 uM, control 9050
  No. of colonies: 63
MLV-neo; without D4T 9.2 × 10^4
  No. of colonies with D4T: 101
[3]
  cells infected with HIV in the presence of d4T that are readily re-infected in the presence of high concentrations of d4T: ~50%
[3]; Hela-T4, MLV-neo, AZT 10 uM, DDI 50 uM, DDC 10 uM, D4T 50 uM, resistant/tested
  No. of persistently resistant colonies: 23/63
[3]; cells infected in the presence of d4T, re-infection at high concentrations of d4T
  isolated cells repeatedly refractory to the antiviral effects of d4T: approximately 37%
[3]; frequency of persistently resistant colonies, Hela-T4, MLV-neo
  Frequency: 2.5 × 10^−3
MLV-LacZ; JE6.1 parental cell line, 50 uM D4T
  % cells infected with MLV-LacZ in the presence of D4T relative to absence of D4T: − ((−), 20%)
MLV-LacZ; JE6.1 parental cell line, 100 uM D4T
  % cells infected with MLV-LacZ in the presence of D4T relative to absence of D4T: − ((−), 20%)
MLV-LacZ; Jurkat Bulk (bulk culture), 50 uM D4T
  % cells infected with MLV-LacZ in the presence of D4T relative to absence of D4T: ++ ((++) 41-60%)
MLV-LacZ; Jurkat Bulk (bulk culture), 100 uM D4T
  % cells infected with MLV-LacZ in the presence of D4T relative to absence of D4T: + ((+) 21-40%)
MLV-LacZ; Jurkat control clone C2, 50 uM D4T
  % cells infected with MLV-LacZ in the presence of D4T relative to absence of D4T: − ((−), 20%)
MLV-LacZ; Jurkat control clone C2, 100 uM D4T
  % cells infected with MLV-LacZ in the presence of D4T relative to absence of D4T: − ((−), 20%)
MLV-LacZ; Jurkat control clone C23, 50 uM D4T
  % cells infected with MLV-LacZ in the presence of D4T relative to absence of D4T: − ((−), 20%)
MLV-LacZ; Jurkat control clone C23, 100 uM D4T
  % cells infected with MLV-LacZ in the presence of D4T relative to absence of D4T: − ((−), 20%)
MLV-LacZ; Jurkat control clone C26, 50 uM D4T
  % cells infected with MLV-LacZ in the presence of D4T relative to absence of D4T: − ((−), 20%)
MLV-LacZ; Jurkat control clone C26, 100 uM D4T
  % cells infected with MLV-LacZ in the presence of D4T relative to absence of D4T: − ((−), 20%)
MLV-LacZ; Jurkat control clone C27, 50 uM D4T
  % cells infected with MLV-LacZ in the presence of D4T relative to absence of D4T: − ((−), 20%)
MLV-LacZ; Jurkat control clone C27, 100 uM D4T
  % cells infected with MLV-LacZ in the presence of D4T relative to absence of D4T: − ((−), 20%)
MLV-LacZ; Jurkat resistant clone R1, 50 uM D4T
  % cells infected with MLV-LacZ in the presence of D4T relative to absence of D4T: ++++ ((++++), 81-100%)
MLV-LacZ; Jurkat resistant clone R1, 100 uM D4T
  % cells infected with MLV-LacZ in the presence of D4T relative to absence of D4T: ++++ ((++++), 81-100%)
MLV-LacZ; Jurkat resistant clone R3, 50 uM D4T
  % cells infected with MLV-LacZ in the presence of D4T relative to absence of D4T: +++ ((+++), 61-80%)
MLV-LacZ; Jurkat resistant clone R3, 100 uM D4T
  % cells infected with MLV-LacZ in the presence of D4T relative to absence of D4T: ++ ((++) 41-60%)
MLV-LacZ; Jurkat resistant clone R4, 50 uM D4T
  % cells infected with MLV-LacZ in the presence of D4T relative to absence of D4T: − ((−), 20%)
MLV-LacZ; Jurkat resistant clone R4, 100 uM D4T
  % cells infected with MLV-LacZ in the presence of D4T relative to absence of D4T: − ((−), 20%)
MLV-LacZ; Jurkat resistant clone R7, 50 uM D4T
  % cells infected with MLV-LacZ in the presence of D4T relative to absence of D4T: − ((−), 20%)
MLV-LacZ; Jurkat resistant clone R7, 100 uM D4T
  % cells infected with MLV-LacZ in the presence of D4T relative to absence of D4T: − ((−), 20%)
MLV-LacZ; Jurkat resistant clone R12, 50 uM D4T
  % cells infected with MLV-LacZ in the presence of D4T relative to absence of D4T: ++++ ((++++), 81-100%)
MLV-LacZ; Jurkat resistant clone R12, 100 uM D4T
  % cells infected with MLV-LacZ in the presence of D4T relative to absence of D4T: ++++ ((++++), 81-100%)
MLV-LacZ; Jurkat resistant clone R14, 50 uM D4T
  % cells infected with MLV-LacZ in the presence of D4T relative to absence of D4T: + ((+) 21-40%)
MLV-LacZ; Jurkat resistant clone R14, 100 uM D4T
  % cells infected with MLV-LacZ in the presence of D4T relative to absence of D4T: − ((−), 20%)
MLV-LacZ; Jurkat resistant clone R15, 50 uM D4T
  % cells infected with MLV-LacZ in the presence of D4T relative to absence of D4T: ++++ ((++++), 81-100%)
MLV-LacZ; Jurkat resistant clone R15, 100 uM D4T
  % cells infected with MLV-LacZ in the presence of D4T relative to absence of D4T: ++++ ((++++), 81-100%)
MLV-LacZ; Jurkat resistant clone R16, 50 uM D4T
  % cells infected with MLV-LacZ in the presence of D4T relative to absence of D4T: + ((+) 21-40%)
MLV-LacZ; Jurkat resistant clone R16, 100 uM D4T
  % cells infected with MLV-LacZ in the presence of D4T relative to absence of D4T: − ((−), 20%)
MLV-LacZ; Jurkat resistant clone R19, 50 uM D4T
  % cells infected with MLV-LacZ in the presence of D4T relative to absence of D4T: − ((−), 20%)
MLV-LacZ; Jurkat resistant clone R19, 100 uM D4T
  % cells infected with MLV-LacZ in the presence of D4T relative to absence of D4T: − ((−), 20%)
MLV-LacZ; Jurkat resistant clone R20, 50 uM D4T
  % cells infected with MLV-LacZ in the presence of D4T relative to absence of D4T: ++++ ((++++), 81-100%)
MLV-LacZ; Jurkat resistant clone R20, 100 uM D4T
  % cells infected with MLV-LacZ in the presence of D4T relative to absence of D4T: +++ ((+++), 61-80%)
MLV-LacZ; Jurkat resistant clone R21, 50 uM D4T
  % cells infected with MLV-LacZ in the presence of D4T relative to absence of D4T: ++++ ((++++), 81-100%)
MLV-LacZ; Jurkat resistant clone R21, 100 uM D4T
  % cells infected with MLV-LacZ in the presence of D4T relative to absence of D4T: ++++ ((++++), 81-100%)
MLV-LacZ; Jurkat resistant clone R22, 50 uM D4T
  % cells infected with MLV-LacZ in the presence of D4T relative to absence of D4T: ++ ((++) 41-60%)
MLV-LacZ; Jurkat resistant clone R22, 100 uM D4T
  % cells infected with MLV-LacZ in the presence of D4T relative to absence of D4T: + ((+) 21-40%)
MLV-LacZ; Jurkat resistant clone R26, 50 uM D4T
  % cells infected with MLV-LacZ in the presence of D4T relative to absence of D4T: + ((+) 21-40%)
MLV-LacZ; Jurkat resistant clone R26, 100 uM D4T
  % cells infected with MLV-LacZ in the presence of D4T relative to absence of D4T: − ((−), 20%)
MLV-LacZ; Jurkat resistant clone R29, 50 uM D4T
  % cells infected with MLV-LacZ in the presence of D4T relative to absence of D4T: − ((−), 20%)
MLV-LacZ; Jurkat resistant clone R29, 100 uM D4T
  % cells infected with MLV-LacZ in the presence of D4T relative to absence of D4T: − ((−), 20%)
MLV-LacZ; Jurkat resistant clone R33, 50 uM D4T
  % cells infected with MLV-LacZ in the presence of D4T relative to absence of D4T: +++ ((+++), 61-80%)
MLV-LacZ; Jurkat resistant clone R33, 100 uM D4T
  % cells infected with MLV-LacZ in the presence of D4T relative to absence of D4T: + ((+) 21-40%)
MLV-LacZ; Jurkat resistant clone R36, 50 uM D4T
  % cells infected with MLV-LacZ in the presence of D4T relative to absence of D4T: ++++ ((++++), 81-100%)
MLV-LacZ; Jurkat resistant clone R36, 100 uM D4T
  % cells infected with MLV-LacZ in the presence of D4T relative to absence of D4T: ++ ((++) 41-60%)
HIV-IIIB; D4TBulk cells (refractory to d4T)
  IC50: 3 µM
HIV-IIIB; D4TR1 cells (refractory to d4T)
  IC50: 74 µM
HIV-IIIB; D4TR3 cells (refractory to d4T)
  IC50: 2 µM
HIV-IIIB; JE6.1 control cells
  IC50: 0.02 µM
